From PubChem BioAssay AID179 (DTP/NCI, 2004)
Several values for one entry are separate records, joined by “and”; a condition that tells them apart may be missing. Equal values may be shown once. Activity calls are given as the source filed them.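 The calls were made as follows: active = compounds giving half or more protection of infected cells from virus-caused growth loss, again on retest; inactive = the rest.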

Tested on: CEM cells HIV-1 protection, formazan growth assay
Experiment: NCI AIDS Antiviral Assay
Conditions: for IC50: measured here: growth of uninfected CEM cells
In short: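 CEM (human) cells, HIV-1 infected vs uninfected, 5-point dosing, formazan growth read-out. Retest threshold 50% protection.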

| SMILES | outcome | EC50 | IC50 |
| --- | --- | --- | --- |
| CCCNC(=O)N(C(C)(C)C)S(=O)(=O)c1ccc(Cl)cc1 | inactive |  |  |
| CCN1C[C@]2(C)CCC(OC)C34[C@@H]5C[C@@H]6C(OC)[C@@H]5[C@@]5(C[C@@H]6OC)OCO[C@]5([C@H]13)[C@@H](OC(C)=O)[C@@H]42 (some centres undefined) | inactive |  |  |
| C[C@@]12C[C@@H](c3ccccc3O1)N1CCCCSC1=N2 |  | > 200 µM | > 200 µM |
| COc1ccc(-c2nc3ccccc3s2)cc1S(=O)(=O)O |  | > 105 µM | 95.5 µM |
| CCC1(N=[N+]=[N-])C(=O)c2ccccc2N(c2ccccc2)C1=O (centres undefined) |  | > 200 µM | > 200 µM |
| Cn1nc(-c2ccccc2)c2c(-c3ccccc3)c3cc(Cl)ccc3nc21 |  | > 100 µM | > 100 µM |
| CC(C)(C)OC(=O)N(CCCCNCc1ccc2ccccc2c1)CCCNCc1ccc2ccccc2c1 |  | > 2 µM | 1.05 µM |
| Cc1ccccc1NC(=O)C(=O)Cc1cnc2ccccc2n1 |  | > 162 µM | > 162 µM |
| CN(C)P(=O)(N(C)C)N(C)C.[CH3][Sn]([CH3])([Cl])[Cl] | inactive |  |  |
| COC(=O)CC(=O)C[P+](c1ccccc1)(c1ccccc1)c1ccccc1 |  | > 550 µM | 42.7 µM |
| NC(N)=NS(=O)(=O)c1ccc(NNC(=O)c2cccc3c(=O)c4ccccc4[nH]c23)cc1 |  | > 200 µM | 33.9 µM |
| C=C(C)[C@@H]1CC[C@]2(C(=O)O)CC[C@]3(C)[C@H](CCC4[C@@]5(C)CC[C@H](C(=O)/C=C/c6ccc(O)c(O)c6)C(C)(C)[C@@H]5CC[C@]43C)[C@@H]12 (some centres undefined) |  | > 200 µM | 2.29 µM |
| Cc1ccc(SSCCCCS(=O)O)cc1 | inactive |  |  |
| CCN(CC)CCn1nc(N)c2nc3cc(Cl)ccc3nc21 |  | > 100 µM | 51.3 µM |
| C/C(N=NS(=O)(=O)c1ccc([N+](=O)[O-])cc1)=C1\C=CC=CN1O | inactive |  |  |
| COC(=O)CCN1c2ccccc2Sc2ccccc21 |  | > 66.1 µM | > 66.1 µM |
| CC(=O)NC1=C(C)C(=O)c2c(nc3n2CCC3OC(=O)CCl)C1=O (centres undefined) |  | > 200 µM | 1.48 µM |
| CCOC(=O)c1c[nH]c2ccc3c(c2c1=O)S(=O)(=O)CC3 (tested in a mixture with another compound) | inactive |  |  |
| [Cl][Cu][Cl] |  | > 200 µM | 182 µM |
| O=P(O)(Cc1ccccc1)OCC1(O)OCC(O)C(O)C1O (centres undefined) |  | > 200 µM | > 200 µM |
| O=C1C[C@H](Sc2ccccc2)C2(OCCO2)[C@@H](Sc2ccccc2)C1 |  | > 2 µM | 1.05 µM |
| CC1C2CCC3C4CC=C5CC(N(C)C)CCC5(C)C4CCC32CN1C (centres undefined) |  | > 200 µM | 41.7 µM |
| Cc1cn(C(CO)OC(CO)CP(=O)(O)O)c(=O)[nH]c1=O (centres undefined) |  | > 200 µM | > 200 µM |

| SMILES | outcome | EC50 | IC50 |
| --- | --- | --- | --- |
| O=C1CCC2=C(CCCC2=O)N1 |  | > 200 µM | > 200 µM |
| Cc1c(C(=O)CSc2nc3ccccc3c(=O)n2-c2ccccc2)c(=O)n(-c2ccccc2)n1C |  | > 5.62 µM | > 5.62 µM |
| CN(C)CCSc1cccc(-c2cc(-c3cccs3)nc(SCCN(C)C)n2)c1 |  | > 282 µM | 2.24 µM |
| Cc1c([O-])c([O-])c(C)c2c1OCO2.[C-]#[O+].[C-]#[O+].[C-]#[O+].[C-]#[O+].[Re] |  | > 200 µM | 31.6 µM |
| CCCCCCC(O)CC[C@H]1CCC[C@@H](C)N1 (some centres undefined) | inactive |  |  |
| CCCCCCCCCCCCCCCCNc1ccn(C2CC(O)C(COC(c3ccccc3)(c3ccccc3)c3ccc(OC)cc3)O2)c(=O)n1 (centres undefined) |  | > 200 µM | 45.7 µM |
| Nc1ccc(C(=O)O)c2[nH]c3ccccc3c(=O)c12 | inactive |  |  |
| Clc1nc2nc3ccccc3nc2nc1Cl |  | > 100 µM | 77.6 µM |
| CCc1cccc(CC)c1NC1=CC(=O)C(=O)c2ccccc21 |  | > 23.4 µM | > 23.4 µM |
| Oc1ccccc1C(c1cc2c(cc1O)OCO2)N1CCOCC1 (centres undefined) |  | > 200 µM | 11 µM |
| COC(=O)c1cc(=O)n(-c2ccc3nn(C)nc3c2)cc1C(=O)OC |  | > 200 µM | > 200 µM |
| O=c1ccc2nc3cc(Cl)ccc3sc-2c1 |  | > 8.13 µM | 2.19 µM |
| Oc1ccc([Te]CCNCC[Te]c2ccc(O)cc2)cc1 |  | > 10 µM | 5.89 µM |
| CC1(C)N=C(N)N=C(N)N1c1ccc(Cl)c(Cl)c1 |  | > 0.01 µM | 0.00427 µM |
| COC1(OC)CC2C(=O)CCCC21OC (centres undefined) |  | > 603 µM | > 603 µM |
| CCOC(=O)NC(Nc1ccc(S(=O)(=O)Nc2ncccn2)cc1)(C(=O)OCC)C(F)(F)F (centres undefined) |  | > 200 µM | > 200 µM |
| O=C1N(CO)C2C(N1CO)N(CO)C(=O)N2CO (centres undefined) |  | > 200 µM | 33.1 µM and 102 µM |
| N#Cc1nc(Cc2ccccc2)oc1N | inactive |  |  |
| Cc1csc(-n2nc(C)cc2C)n1 |  | > 200 µM | > 200 µM |
| CC(=O)NC1C(=O)N(c2ccccc2)C1c1ccccc1 (centres undefined) |  | > 178 µM | > 178 µM |
| CC1=C(N2CCOCC2)C(N2CCOCC2)=C(C)C(=O)C1=O |  | > 200 µM | 14.5 µM |
| Cn1c2ccccc2n2c3ncccc3c(=S)c(C#N)c12 |  | > 200 µM | > 200 µM |
| Cc1cc2c(cc1C)[n+](=O)c(C(=O)CC(=O)C(=O)Nc1ccccc1C(C)C)c(C)n2[O-] |  | > 575 µM | > 575 µM |

| SMILES | outcome | EC50 | IC50 |
| --- | --- | --- | --- |
| OCC(O)C(OC1OC(CO)C(O)C(O)C1O)c1nn(-c2ccccc2)c2nc3cc(Cl)ccc3nc12 (centres undefined) | inactive |  |  |
| COc1c(C)c2c(c(=O)c3c(C)cccc3n2C)c2c1c(=O)c1c(C)cccc1n2C |  | > 200 µM | 155 µM |
| N#CC(Cc1ccccc1)C(N)=O (centres undefined) |  | > 200 µM | > 200 µM |
| CCCCCCCCCCCCCCCCCCNC(=S)NC=C(C(N)=O)C(N)=O |  | > 100 µM | > 100 µM |
| CC1(c2ccc(F)cc2)OC(=O)c2c1ccc1ccccc21 (centres undefined) | inactive |  |  |
| Cc1ccc(S(=O)(=O)/C(C#N)=C/NC(=S)Nc2ccc(S(N)(=O)=O)cc2)cc1 | inactive |  |  |
| COc1ccc2c(c1)CCCN1CCc3ccccc3C21 (centres undefined) |  | > 200 µM | 110 µM |
| COc1ccc2c3c(c(C(=O)O)oc13)C(CCC(=O)O)CC2 (centres undefined) | inactive |  |  |
| O=[N+]([O-])c1ccc(/C=[N+](\[O-])CCO)o1 |  | > 200 µM | 30.9 µM |
| NC1=C(c2ccccc2)C(=O)c2ccccc21 |  | > 61.7 µM | > 61.7 µM |
| COC(=O)c1cc(NC2OCC(OC(C)=O)C(OC(C)=O)C2OC(C)=O)nc(SC)c1C(=O)OC (centres undefined) |  | > 200 µM | > 200 µM |
| CN1C(=O)C2(Nc3ccccc3N2)c2ccccc21 |  | > 70.8 µM | > 70.8 µM |
| COc1ccc(C=C(C(C)=O)C(C)=O)cc1 |  | > 437 µM | 58.9 µM |
| CNCC(OB(c1ccccc1)c1ccccc1)c1ccccc1 (centres undefined) |  | > 200 µM | 60.3 µM |
| COc1cccc(/C=C2/S/C(=N/Nc3nc(C)c(C(C)=O)s3)NC2=O)c1O |  | > 200 µM | 32.4 µM |
| O=C(CCCC[P+](c1ccccc1)(c1ccccc1)c1ccccc1)c1ccccc1 |  | > 200 µM | 0.661 µM |
| CCCCCCCCCCCCn1[nH]c(C)c(C(=S)SCCCCCCCC)c1=O |  | > 57.5 µM | 56.2 µM |
| COc1ccc(C2c3cc4c(cc3OC(N3CCOCC3)C2C)OCO4)cc1 (centres undefined) |  | > 200 µM | 53.7 µM |
| NCCSC12CC3CC(CC(C3)C1)C2 |  | > 200 µM | 67.6 µM |
| CC(C(=O)O)c1ccc(C(=O)c2cccs2)cc1 (centres undefined) |  | > 200 µM | > 200 µM |
| COc1ccc(-c2oc3c(Cl)cc(Cl)cc3c(=O)c2O)cc1OC |  | > 200 µM | > 200 µM |
| COc1cccc(C=O)c1[O-].COc1cccc(C=O)c1[O-].[Zn+2] |  | > 676 µM | 21.9 µM |
| c1ccc2nc(SSc3ccc4ccccc4n3)ccc2c1 |  | > 200 µM | 24 µM |

| SMILES | outcome | EC50 | IC50 |
| --- | --- | --- | --- |
| Cc1c(CCCl)c(N=P(c2ccccc2)(c2ccccc2)c2ccccc2)n2c(nc3ccccc32)c1C#N |  | > 200 µM | > 200 µM |
| BrC1=CC2C(C3C=CC2(Br)C32OCCO2)C12OCCO2 (centres undefined) |  | > 166 µM | > 166 µM |
| [N-]=[N+]=NC1CC(n2ccc(=O)[nH]c2=O)OC1CO (centres undefined) |  | 2.88 µM | 20 µM |
| O=C1CC2(c3ccccc3)CCCCC2=NN1 (centres undefined) |  | > 200 µM | > 200 µM |
| CCOC(=O)C(=CNC(=S)Nc1cc(C)ccc1C)C(=O)OCC |  | > 200 µM | > 200 µM |
| CC(C)(O)/C=C\P(=O)(O)O |  | > 200 µM | > 200 µM |
| NC(=O)NCNC(N)=O |  | > 676 µM | > 676 µM |
| CC(=O)O[C@H]1CC[C@H]2[C@@H]3CCC4=C/C(=N/OCCN(C)C)CC[C@]4(C)[C@H]3CC[C@]12C |  | > 200 µM | 0.955 µM |
| N#C/C(=C/NC(N)=S)C(N)=O |  | > 200 µM | > 200 µM |
| CCOC(=O)c1nc2cc(C(F)(F)F)ccc2nc1Oc1ccc(C#N)cc1 |  | > 200 µM | 93.3 µM |
| O=C1CCC2CCC(=O)N12 |  | > 1780 µM | > 1780 µM |
| O=c1[nH]c2ccccc2c2oc3ccccc3c12 |  | > 200 µM | > 200 µM |
| [N-]=[N+]=Nc1ccc(CCN2CCN(c3cccc(C(F)(F)F)c3)CC2)cc1I | inactive |  |  |
| NCCn1cnc2nc(NC(=O)c3ccccc3)[nH]c(=O)c21 |  | > 166 µM | 91.2 µM |
| C=C(CN(C)C)C1(c2ccccc2)CC2(CCCC2)C(=O)O1 (centres undefined) |  | > 200 µM | 38 µM |
| CCCCc1c2c([n+]([O-])c3c1CCCC3)CCCC2 |  | > 138 µM | 22.4 µM |
| CSc1ccc(Nc2cc(=O)[nH]c(=O)[nH]2)cc1 |  | > 200 µM | > 200 µM |
| COc1cccc(C2c3cc4c(cc3OC(NNC(N)=O)C2C)OCO4)c1OC (centres undefined) |  | > 200 µM | 8.13 µM |
| CC(C)=CCC/C(C)=C/CN1Cc2cccc3[nH]c(=S)n(c23)CC1C (centres undefined) |  | > 18.2 µM |  |
| FC(F)(F)c1nc2c(ccc3[nH]c4c(-c5ccccc5)nccc4c32)[nH]1 |  | > 28.2 µM | > 28.2 µM |
| O=c1sc(-c2nc3ccccc3[nH]2)c(/N=C/c2ccccc2)n1-c1ccccc1 |  | > 2.63 µM | > 2.63 µM |
| N#Cc1c(N=Cc2ccccc2)c(C(=O)Nc2ccccc2)n2c1CCCC2 |  | > 200 µM | > 200 µM |
| CC(=O)NC1CC(C(C)(C)NC(C)=O)CC=C1C (centres undefined) |  | > 269 µM | > 269 µM |
